The target of test [1] is T1, kinase Axl (Homo sapiens, UniProt P30530).
T1 construct: purchased Carna 08-107
T1 sequence (P30530 473-894 limits assumed): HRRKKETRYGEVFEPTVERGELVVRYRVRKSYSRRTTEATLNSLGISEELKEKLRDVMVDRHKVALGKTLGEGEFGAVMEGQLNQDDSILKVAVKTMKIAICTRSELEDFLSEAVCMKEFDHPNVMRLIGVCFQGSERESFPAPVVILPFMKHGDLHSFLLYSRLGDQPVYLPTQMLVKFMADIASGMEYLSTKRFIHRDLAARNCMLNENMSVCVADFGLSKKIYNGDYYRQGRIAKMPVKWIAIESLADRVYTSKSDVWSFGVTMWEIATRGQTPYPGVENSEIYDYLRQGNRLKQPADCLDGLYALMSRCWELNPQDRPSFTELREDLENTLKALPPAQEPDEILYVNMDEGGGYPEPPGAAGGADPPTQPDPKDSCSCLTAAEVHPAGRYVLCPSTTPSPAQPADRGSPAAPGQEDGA
The test can be described thus: Mobility shift assay, inhibitory activity against kinase Axl. In kind it is biochemical. Conditions: ATP at Km (81 μM), average of two independent experiments.

For test [2], the target named is T2, kinase c-MET (Homo sapiens, UniProt P08581).
T2 construct: purchased Carna 08-151
Kind of test: Mobility shift assay, inhibitory activity against kinase c-MET. In kind it is biochemical. The following applies: ATP at Km (35 μM), average of two independent experiments.

For test [3], the target named is T3, Ba/F3 Axl cells (Homo sapiens, UniProt P30530).
T3 sequence (P30530 1-894): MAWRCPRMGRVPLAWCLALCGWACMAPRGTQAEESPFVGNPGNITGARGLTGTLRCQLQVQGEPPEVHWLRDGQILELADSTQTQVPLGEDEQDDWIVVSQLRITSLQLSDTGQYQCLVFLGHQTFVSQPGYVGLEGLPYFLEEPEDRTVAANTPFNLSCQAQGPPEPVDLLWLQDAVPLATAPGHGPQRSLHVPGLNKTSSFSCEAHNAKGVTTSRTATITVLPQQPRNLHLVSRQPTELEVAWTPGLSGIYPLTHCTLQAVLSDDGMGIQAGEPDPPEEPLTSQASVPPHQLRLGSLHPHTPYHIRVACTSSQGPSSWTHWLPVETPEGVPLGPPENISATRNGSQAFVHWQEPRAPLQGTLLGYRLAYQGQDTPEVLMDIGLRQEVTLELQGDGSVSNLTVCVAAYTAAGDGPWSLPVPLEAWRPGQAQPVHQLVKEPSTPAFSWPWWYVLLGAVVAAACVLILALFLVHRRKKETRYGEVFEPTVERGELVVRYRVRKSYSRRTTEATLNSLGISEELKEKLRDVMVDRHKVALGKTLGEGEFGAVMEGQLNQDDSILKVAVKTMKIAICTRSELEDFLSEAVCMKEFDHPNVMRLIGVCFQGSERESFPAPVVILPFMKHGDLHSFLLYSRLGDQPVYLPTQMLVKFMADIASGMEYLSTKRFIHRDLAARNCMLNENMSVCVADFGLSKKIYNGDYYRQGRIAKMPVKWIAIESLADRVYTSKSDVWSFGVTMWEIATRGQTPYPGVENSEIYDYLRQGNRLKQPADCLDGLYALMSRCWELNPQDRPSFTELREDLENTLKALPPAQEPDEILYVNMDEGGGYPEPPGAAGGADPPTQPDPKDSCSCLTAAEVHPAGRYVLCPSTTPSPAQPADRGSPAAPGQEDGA
The test can be described thus: Ba/F3 Axl cell proliferation, CellTiter-Glo Luminescent Cell Viability Assay. Conditions: 100 ng/mL rhGas6, 72 h incubation, read-out: IC50 (nM) against Ba/F3 Axl cells. In kind it is cell-based. On the procedure: Test method: the inhibitory activity of the compounds against Ba/F3 Axl cell proliferation was evaluated using CellTiter-Glo® Luminescent Cell Viability Assay Kit (Promega).
Test procedures: when thawing Ba/F3 Axl cells, the cell cryopreservation tube was shaken rapidly in a water bath at 37° C. to thaw the cells in 1 min. The cell suspension after thawing was mixed with RPMI1640 culture medium containing 10% FBS and centrifuged for 5 min at 1000 rpm, and the supernatant was discarded. The cell pellet was suspended in 5 mL of complete culture medium. […] Cell passage was performed at a cell density of 2×10^6 viable cells/mL. When the cells were passaged, the original cell suspension was directly made uniform by pipetting. 1/10 (namely 0.5 mL) of the cell suspension was kept, added with 4.5 mL of new complete culture medium and then made uniform by pipetting. The cell culture flask was then placed in a cell incubator for further culturing. Cell plating was performed when the cell confluence reached 2×10^6 viable cells/mL again. With reference to the method for cell passage, 1/10 (namely 0.5 mL) of the cell suspension was kept for further culturing when the cells were plated, and the remaining cell suspension was placed in a 15 mL centrifuge tube. The supernatant was discarded after centrifugation, and 5 mL of complete culture medium was used to resuspend the cells. […] A control group that contains no cell or compound but only complete culture medium and a control group that contains no compound but cells were set. The cell plates were incubated overnight in a cell incubator. […] The cell plates were then incubated in the cell incubator for 72 h. […] The cell plate was left to stand at room temperature for 20 min to stabilize luminescence signals, and the luminescence value of each well was scanned by a Spectramax M3 multi-functional microplate reader (Molecular Devices) at full wavelength.
Test samples: example compounds of the present invention and bemcentinib (positive control compound).
Data analysis: cell viability was calculated for compounds at various concentrations using the following formula:
Cell viability(%)=(Lumtest compound−Lumculture solution control)/(Lumcell control−Lumculture solution control)×100%,
where Lum refers to the luminescence value of each well of the test compound plate read by the multi-functional microplate reader.
The data were analyzed using GraphPad Prism 7.0 software, fitted with nonlinear S-curve regression to give dose-response curves, and IC50 values were calculated therefrom.
Background: ATP-based viability assays read luminescence as a measure of living cells.

T2 sequence (P08581 956-1390 limits assumed): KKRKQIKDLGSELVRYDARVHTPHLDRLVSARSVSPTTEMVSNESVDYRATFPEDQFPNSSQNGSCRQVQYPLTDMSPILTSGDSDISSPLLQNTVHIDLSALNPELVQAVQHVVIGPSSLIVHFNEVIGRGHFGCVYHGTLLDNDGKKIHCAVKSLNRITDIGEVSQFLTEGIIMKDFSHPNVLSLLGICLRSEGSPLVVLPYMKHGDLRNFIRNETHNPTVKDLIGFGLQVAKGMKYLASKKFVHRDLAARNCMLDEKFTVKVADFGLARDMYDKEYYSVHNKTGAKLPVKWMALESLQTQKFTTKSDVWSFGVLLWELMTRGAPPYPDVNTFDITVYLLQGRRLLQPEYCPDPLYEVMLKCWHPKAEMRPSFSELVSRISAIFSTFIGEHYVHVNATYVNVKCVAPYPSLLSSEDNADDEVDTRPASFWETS

As to `CC(C)n1cc(C(=O)Nc2ccc(-c3cc(-c4cnn(C5CCNCC5)c4)cnc3N)c(F)c2)c(=O)c(-c2ccc(F)cc2)c1C#N` [Example 2, N-(4-(2-amino-5-(1-(piperidin-4-yl)-1H-pyrazol-4-yl)pyridin-3-yl)-3-fluorophenyl)-6-cyano-5-(4-fluorophenyl)-1-isopropyl-4-oxo-1,4-dihydropyridine-3-carboxamide], the values for the IC50 in test [1] and in test [2] were 0.46 nM and 14 nM, respectively.

With `CCn1cc(-c2cnc(N)c(-c3ccc(NC(=O)c4cn(C(C)C)c(C#N)c(-c5ccc(F)cc5)c4=O)cc3F)c2)cn1` [Example 3, N-(4-(2-amino-5-(1-ethyl-1H-pyrazol-4-yl)pyridin-3-yl)-3-fluoro-phenyl)-6-cyano-5-(4-fluorophenyl)-1-isopropyl-4-oxo-1,4-dihydropyridine-3-carboxamide], the IC50 in test [1] was found to be 2.7 nM; in test [2], 30 nM. The GI50 in test [3] is 0.29 nM.

With `CC(C)n1cc(C(=O)Nc2ccc(-c3cc(-c4cnn(C)c4)cnc3N)c(F)c2)c(=O)c(-c2ccc(F)cc2)c1C#N` [Example 4, N-(4-(2-amino-5-(1-methyl-1H-pyrazol-4-yl)pyridin-3-yl)-3-fluorophenyl)-6-cyano-5-(4-fluorophenyl)-1-isopropyl-4-oxo-1,4-dihydropyridine-3-carboxamide], the 50% inhibitory concentration (IC50) in test [1] stood at 0.28 nM; in test [2] it was 3 nM. Moreover, the GI50 in test [3] came to 0.57 nM.

For `CC(C)n1cc(C(=O)Nc2cc(F)c(-c3cc(-c4cnn(C)c4)cnc3N)cc2F)c(=O)c(-c2ccc(F)cc2)c1C#N` [Example 6, N-(4-(2-amino-5-(1-methyl-1H-pyrazol-4-yl)pyridin-3-yl)-2,5-difluorophenyl)-6-cyano-5-(4-fluorophenyl)-1-isopropyl-4-oxo-1,4-dihydropyridine-3-carboxamide], the IC50 is 2 nM in test [1] and 26 nM in test [2]. For the same compound, the GI50 in test [3] worked out at 0.49 nM.

On to `CCn1cc(-c2cnc(N)c(-c3ccc(NC(=O)c4cn(C5CC5)c(C#N)c(-c5ccc(F)cc5)c4=O)cc3F)c2)cn1` [Example 10, N-(4-(2-amino-5-(1-ethyl-1H-pyrazol-4-yl)pyridin-3-yl)-3-fluorophenyl)-6-cyano-5-(4-fluorophenyl)-1-cyclopropyl-4-oxo-1,4-dihydropyridine-3-carboxamide], for which the IC50 in test [1] was found to be 2.8 nM; in test [2], 23 nM.

In the case of `COc1cc2nccc(Oc3ccc(NC(=O)c4cn(C)c(C#N)c(-c5ccc(F)cc5)c4=O)cc3F)c2cc1OC` [Example 21, 6-cyano-N-(4-((6,7-dimethoxyquinolin-4-yl)oxy)-3-fluoro-phenyl)-5-(4-fluorophenyl)-1-methyl-4-oxo-1,4-dihydropyridine-3-carboxamide], the half-maximal inhibitory concentration (IC50) in test [1] is 3.2 nM. In addition, the GI50 in test [3] is 0.29 nM.

On to `COc1cc2nccc(Oc3ccc(NC(=O)c4cn(C(C)C)c(C#N)c(-c5ccc(F)cc5)c4=O)cc3F)c2cc1OC` [Example 24, 6-cyano-N-(4-((6,7-dimethoxyquinolin-4-yl)oxy)-3-fluoro-phenyl)-5-(4-fluorophenyl)-1-isopropyl-4-oxo-1,4-dihydropyridine-3-carboxamide], for which the GI50 in test [3] was 0.36 nM.

With `CCn1cc(-c2cnc(N)c(-c3cc(F)c(NC(=O)c4cn(C(C)C)c(C#N)c(-c5ccc(F)cc5)c4=O)cc3F)c2)cn1` [Example 33, N-(4-(2-amino-5-(1-ethyl-1H-pyrazol-4-yl)pyridin-3-yl)-2,5-difluorophenyl)-6-cyano-5-(4-fluorophenyl)-1-isopropyl-4-oxo-1,4-dihydropyridine-3-carboxamide], in test [3], the GI50 was determined as 0.23 nM.

With `[2H]C([2H])([2H])n1cc(-c2cnc(N)c(-c3cc(F)c(NC(=O)c4cn(C(C)C)c(C#N)c(-c5ccc(F)cc5)c4=O)cc3F)c2)cn1` [Example 34, N-(4-(2-amino-5-(1-methyl-d3-1H-pyrazol-4-yl)pyridin-3-yl)-2,5-difluorophenyl)-6-cyano-5-(4-fluorophenyl)-1-isopropyl-4-oxo-1,4-dihydropyridine-3-carboxamide], the GI50 in test [3] amounted to 0.28 nM.

Usually IC50 stands for the concentration needed to halve the response being measured.

These data come from patent US20210355107A1, “MULTI-SUBSTITUTED PYRIDONE DERIVATIVES AND MEDICAL USE THEREOF” (Beijing Yuezhikangtai Biomedicines Co., Ltd., priority 2018, published 2021).
